{"source": "PubChem BioAssay AID540271", "about": "(Broad Institute, 2011)", "note": "Activity calls are given as the source filed them. No rule for the calls is given here."}
{"tested_on": "S. cerevisiae expressing PfHSP40, growth rescue, plate reader", "assay": "S cerevisiae expressing PfHSP40, growth rescue, cherry pick dose confirmatory, plate reader (AID 540271);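 also: yeast growth read after three days of incubation at 30 °C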"}
{"smiles": "CNc1ccc2oc(C[C@H]3O[C@@]4(CC[C@H]3C)O[C@H]([C@H](C)C(=O)c3ccc[nH]3)[C@H](C)C[C@H]4C)nc2c1C(=O)O", "AC50": "0.662 µM"}
{"smiles": "Cc1ccc(S(=O)(=O)Nc2ccc(O)c3cccnc23)cc1", "AC50": "> 12 µM (inactive)"}
{"smiles": "COc1cnc(-c2ccccn2)nc1Sc1ccccc1", "AC50": "6.99 µM"}
{"smiles": "Cc1nc(SCc2ccc(OCCC(C)C)cc2)n[nH]1", "AC50": "3.08 µM"}
{"smiles": "Cc1ccc(-n2nnnc2SCC(=O)N2CCc3ccccc3C2)c(C)c1", "AC50": "5.8 µM"}
{"smiles": "Cc1cccc(C)c1NS(=O)(=O)c1ccc(-c2cnc(C3CC3)o2)cc1", "AC50": "6.06 µM"}
{"smiles": "Cc1ccc(NC(=S)Nc2cccc3cnccc23)cc1C", "AC50": "> 12 µM (inactive)"}
{"smiles": "Cc1cc(/C=C2\\SC(=S)N(C)C2=O)c(C)n1-c1ccc(O)cc1", "AC50": "3.33 µM"}
{"smiles": "CCc1cc(-c2[nH]ncc2-c2ccc([N+](=O)[O-])cc2)c(O)cc1OC", "AC50": "6.19 µM"}
{"smiles": "Cn1cnc([N+](=O)[O-])c1S(=O)(=O)Oc1ccc(Cl)cc1", "AC50": "6.4 µM"}
{"smiles": "CCCn1c(=O)c(C(=O)NCc2ccc(OC)c(OC)c2)c(O)c2ccccc21", "AC50": "2.32 µM"}
{"smiles": "CCCCC(=O)NC(c1ccc(N(C)C)cc1)c1ccc2cccnc2c1O", "note": "(stereo unspecified)", "AC50": "1.65 µM"}
{"smiles": "COc1cccc(/C=N/Nc2ncnc(Cl)c2N)c1O", "AC50": "4.52 µM"}
{"smiles": "COc1cc2cnc(-c3ccccc3)c(C(=O)c3ccc(F)cc3)c2cc1OC", "AC50": "4.57 µM"}
{"smiles": "Cc1cccc(Oc2nc(-c3ccccn3)nc3ccccc23)c1", "AC50": "6.77 µM"}
{"smiles": "CC(C)(C)c1ccc(Oc2ccc(N)cc2)cc1", "AC50": "7.32 µM"}
{"smiles": "CCCCOC(=O)/C=C/c1ccc(OC(=O)OC)c(OC(=O)OC)c1", "AC50": "5.54 µM"}
{"smiles": "O=c1cc(CSc2ccc(Cl)cc2)nc(-c2ccccn2)[nH]1", "AC50": "4.13 µM"}
{"smiles": "O=S(=O)(Nc1nc2ccccc2nc1N1CCN(c2ccccn2)CC1)c1ccc(Cl)cc1", "AC50": "1.79 µM"}
{"smiles": "O=C(O)c1ccc(N/N=C/C2=C(N3CCOCC3)C(=C\\c3ccccc3)/CC2)cc1", "AC50": "6.18 µM"}
{"smiles": "Cc1cc(C(=O)COC(=O)Cc2n[nH]c(=O)c3ccccc23)c(C)n1-c1cccc(C(F)(F)F)c1", "AC50": "6.72 µM"}
{"smiles": "COc1cc(OC)c(-c2c3cc(O)c(=O)cc-3oc3cc(O)c(O)cc23)cc1OC", "AC50": "1.67 µM"}
{"smiles": "COc1ccc(-n2nc(C#N)c(Cl)cc2=O)cc1", "AC50": "7.48 µM"}
{"smiles": "Cc1nc2ccc(NC(=O)COc3cccc(F)c3)cc2s1", "AC50": "10.2 µM"}
{"smiles": "O=C(COc1ccccc1F)Nc1nc(-c2ccccn2)cs1", "AC50": "5.52 µM"}
{"smiles": "O=C(N[C@@H](Cc1ccccc1)C(=O)CCl)OCc1ccccc1", "AC50": "2.19 µM"}
{"smiles": "COc1ccc(CNc2ncnc3sccc23)cc1", "AC50": "4.38 µM"}
{"smiles": "CNC(=S)Nc1ccc(C23CC4CC(CC(C4)C2)C3)cc1", "AC50": "7.25 µM"}
{"smiles": "O=C(OCC(=O)C12CC3CC(CC(C3)C1)C2)c1ccc(O)cc1", "AC50": "1.69 µM"}
{"smiles": "C=CCNC(=S)N1CCC(Cc2ccccc2)CC1", "AC50": "11.3 µM"}
{"smiles": "O=C(NC(=S)N(CCc1ccccc1)CCc1ccccc1)c1ccco1", "AC50": "5.34 µM"}
{"smiles": "C[C@@]12CCC3[C@@](CCC4[C@@]3(C)CCC[C@@]4(C)C(=O)NCc3ccccc3)(CC1=O)C2", "note": "(stereo partly specified)", "AC50": "1.43 µM"}
{"smiles": "CCc1ccc(OCc2n[nH]c(=S)n2Cc2ccccc2)cc1", "AC50": "5.29 µM"}
{"smiles": "O=[N+]([O-])c1cccc(C=NNc2ccc3ccccc3n2)c1O", "AC50": "1.69 µM"}
{"smiles": "O=C(N/N=C/c1c(O)n(Cc2ccccc2)c(=O)c2ccccc12)c1cccnc1", "AC50": "6.92 µM"}
{"smiles": "Oc1ccc(Cl)cc1CNc1cccc2cccnc12", "AC50": "6.73 µM"}
{"smiles": "COc1cc2c(c(OC)c1OC)-c1ccc(O)c(=O)cc1[C@@H](N)CC2", "AC50": "2.52 µM"}
{"smiles": "CC(C)(C)C(=O)C(Oc1ccc(Cl)cc1)n1cncn1", "note": "(stereo unspecified)", "AC50": "4.7 µM"}
{"smiles": "O=C(NCC1CC1(Cl)Cl)Nc1ccc(Cl)c(Cl)c1", "note": "(stereo unspecified)", "AC50": "5.73 µM"}
{"smiles": "Oc1c(CN2CCCC2)cc(COCc2ccccc2)c2cccnc12", "AC50": "5.55 µM"}
{"smiles": "C(=N\\Nc1nncc2ccccc12)/c1ccccn1", "AC50": "4.74 µM"}
{"smiles": "OCCN(CCO)c1cc2c3ccccc3ccc2c2ccccc12", "AC50": "5.56 µM"}
{"smiles": "COc1ccc(S(=O)(=O)N(C(=O)c2ccncc2)c2ccc(OC(=O)c3ccncc3)cc2)cc1", "AC50": "4.46 µM"}
{"smiles": "Oc1ccc(Br)cc1/C=N/Nc1ccccn1", "AC50": "5.39 µM"}
{"smiles": "CCCOc1ccc(N2C(=O)CC(N3CCC(C(=O)OCC)CC3)C2=O)cc1", "note": "(stereo unspecified)", "AC50": "6.34 µM"}
{"smiles": "O=C(COC(=O)c1ccc([N+](=O)[O-])o1)NC12CC3CC(CC(C3)C1)C2", "AC50": "> 12 µM (inactive)"}
{"smiles": "O=C1CC(N2CCCCCC2)C(=O)N1c1ccc2c(c1)OCO2", "note": "(stereo unspecified)", "AC50": "4.18 µM"}
{"smiles": "Cc1cc(C)c(OCC(=O)Nc2nc(-c3ccccn3)cs2)c(C)c1", "AC50": "4.34 µM"}
{"smiles": "O=c1c(Cl)c(Cl)cnn1Cc1nnc(-c2ccc(Cl)cc2)o1", "AC50": "7.45 µM"}
{"smiles": "CCOC(=O)c1cc2c(=Cc3ccc(N(C)C)cc3)c3ccccc3n2[n+]1C", "AC50": "3.75 µM"}
{"smiles": "COc1ccccc1CNC(=O)CSc1ccc(-c2ccccn2)nn1", "AC50": "5.89 µM"}
{"smiles": "COc1ccc2c(c1)[C@H]1[C@H](CO2)[C@H](c2ccccc2)[C@]2(C)C(=O)Nc3ccc(Cl)cc3C(=O)N12", "AC50": "> 12 µM (inactive)"}
{"smiles": "Cc1csc2nc(O)c(C(=O)NCCCc3ccccc3)c(=O)n12", "AC50": "4.55 µM"}
{"smiles": "CC(C)(C)c1cc(-c2nc(N)nc(N)n2)c(O)c(C(C)(C)C)c1", "AC50": "4.99 µM"}
{"smiles": "CCN(CC)c1ccc(/C=N/NC(=O)c2c(Cl)cnn2C)c(O)c1", "AC50": "4.78 µM"}
{"smiles": "O=S(=O)(CCSc1ccccn1)c1nc2ccccc2s1", "AC50": "7.49 µM"}
{"smiles": "Cc1ccc2oc(-c3ccccc3)c(C(=O)O)c(=O)c2c1", "AC50": "5.94 µM"}
{"smiles": "C=C(C)COc1ccc(-c2[nH]ncc2-c2ccccc2)c(O)c1", "AC50": "5.52 µM"}
{"smiles": "Cc1ccc(S(=O)(=O)N(C(=O)c2ccncc2)c2ccc(OC(=O)c3ccncc3)cc2)cc1", "AC50": "1.83 µM"}
{"smiles": "O=C(CSc1ccc(-c2ccccn2)nn1)NCc1ccc(F)cc1", "AC50": "4.86 µM"}
{"smiles": "CN(C)c1nc(SCc2ccc(Cl)cc2)nc2c1CCCC2", "AC50": "5.58 µM"}
{"smiles": "O=C1c2ccccc2-n2c1nc1ccccc1c2=O", "AC50": "1.83 µM"}
{"smiles": "Cc1nc2ccc(NC(=O)Cc3ccc4c(c3)OCCO4)cc2s1", "AC50": "4.83 µM"}
{"smiles": "CSC1SCC2C(=O)N(C)C(C(C)C)C(=O)OCC(NC(=O)c3cnc4ccccc4n3)C(=O)NC(C)C(=O)N(C)C1C(=O)N(C)C(C(C)C)C(=O)OCC(NC(=O)c1cnc3ccccc3n1)C(=O)NC(C)C(=O)N2C", "note": "(stereo unspecified)", "AC50": "> 12 µM (inactive)"}
{"smiles": "CC(C)(C)n1nc(-c2ccc(Cl)cc2)c2c(N)ncnc21", "AC50": "1.56 µM"}
{"smiles": "Oc1ccc(/C=N/Nc2ccc(C(F)(F)F)cn2)c(O)c1", "AC50": "2.14 µM"}
{"smiles": "O=C1OC(c2ccccc2)=NC12CC2c1ccc(Cl)cc1", "note": "(stereo unspecified)", "AC50": "2.2 µM"}
{"smiles": "Nc1[nH]c(=O)ncc1F", "AC50": "1.51 µM"}
{"smiles": "Nc1nonc1C(=O)NCCN=Cc1cc(Cc2ccccc2)cc(Br)c1O", "AC50": "0.642 µM"}
{"smiles": "Cc1ccccc1NC(=O)CSc1ccc(-c2ccccn2)nn1", "AC50": "4.42 µM"}
{"smiles": "O=C(CC1(O)C(=O)Nc2cc(Cl)cc(Cl)c21)c1ccncc1", "note": "(stereo unspecified)", "AC50": "> 12 µM (inactive)"}
{"smiles": "O=c1c2ccccc2nc(-c2cccc(Cl)c2)n1O", "AC50": "3.21 µM"}
{"smiles": "C=CCn1c(-c2cc(-c3ccc(C)cc3)nc3ccccc23)n[nH]c1=S", "AC50": "5.81 µM"}
{"smiles": "NC(=O)N=Nc1c2[nH]c3ccccc3nc-2c2ccccc12", "AC50": "3.89 µM"}
{"smiles": "O=C(C1CCN(C2CC(=O)N(c3cccc(Cl)c3)C2=O)CC1)N1CCCC1", "note": "(stereo unspecified)", "AC50": "6.02 µM"}
{"smiles": "O/N=C(\\c1ccc(Cl)cc1Cl)c1ncc(C(F)(F)F)cc1Cl", "AC50": "9.27 µM"}
{"smiles": "O=C1c2ccccc2C(=O)c2c1oc(C(F)(F)F)c2C(=O)c1ccccc1", "AC50": "1 µM"}
{"smiles": "COc1cccc(/C=N/NC(=O)c2cc(-c3cccn3C)n[nH]2)c1O", "AC50": "10.2 µM"}
{"smiles": "CC1=CC(C)(C)N(S(=O)(=O)c2ccc(C)cc2)c2ccc(C)cc21", "AC50": "7.54 µM"}
{"smiles": "O=c1nc(N/N=C/c2ccccn2)cn[nH]1", "AC50": "5.76 µM"}
{"smiles": "Cc1[nH]n(-c2cccc3ccccc23)c(=O)c1/C=N/NC(=O)c1cccc([N+](=O)[O-])c1", "AC50": "1.48 µM"}
